Drawing on patent US20190150447A1, “CONDENSED HETEROCYCLIC COMPOUND” (Sumitomo Chemical Company, Limited, priority 2015, published 2019), this text covers mortality and controlling value for 1 compound.

Type in all cases: in vivo
The test system of assay [1] is German cockroach (Blattella germanica). The assay is described as follows: Test Example 5: filter paper/sucrose bait test against German cockroach. The conditions noted are these: 144 h, 0.7 mL on filter paper, male, after 6 days, read-out: mortality of insects. How it is done: (§1) The test compound is made to a formulation according to the method described in the Formulation Example 5, and thereto is added water to prepare a diluted solution containing a prescribed concentration of the test compound.
The bottom of the plastic cup having 5.5 cm diameter is matted with the same size of a filter paper, and 0.7 mL of the diluted solution is added dropwise to the filter paper, and 30 mg sucrose as bait is placed in the cup uniformly. Two (2) heads of male German cockroach (Blattella germanica) are released into the plastic cup, and the cup is covered with the lid. After 6 days, the life and death of German cockroach is examined and the number of died insects is counted, and the mortality of insects is calculated by the following equation.
(§2) Mortality of insects (%)=(Number of dead insects/Number of test insects)×100

Assay [2] deals with housefly (Musca domestica). The assay is described as follows: Test Example 4: filter paper/sucrose bait test against housefly. The conditions noted are these: 0.7 mL on filter paper, female adult, after 24 hours, read-out: mortality of insects. As for the experimental part: as §1
The bottom of the plastic cup having 5.5 cm diameter is matted with the same size of a filter paper, and 0.7 mL of the diluted solution is added dropwise to the filter paper, and 30 mg sucrose as bait is placed in the cup uniformly. Ten (10) heads of female adult housefly (Musca domestica) are released into the plastic cup, and the cup is covered with the lid. After 24 hours, the life and death of housefly is examined and the mortality of insects is determined. The mortality of insects is calculated by the following equation.
as §2

Assay [3] concerns common house mosquito (Culex pipiens pallens). Kind of assay: Test Example 6: larvae released into diluted solution, common house mosquito. The conditions noted are these: 24 h, last instar larvae in diluted solution, after 1 day, read-out: mortality of insects. How it is done: as §1
Thirty (30) heads of last instar larvae of common house mosquito (Culex pipiens pallens) are released into the diluted solutions and after 1 day, the life and dead of common house mosquito is examined, and the mortality of insects is calculated by the following equation.
Mortality of insects (%)=((Number of dead insects/Numboer of test insects)×100

The test system of assay [4] is brown planthopper (Nilaparvata lugens). The assay is described as follows: Test Example 2: foliar spray on rice seedling against brown planthopper. The conditions noted are these: 144 h, spray 10 mL/seedling on rice, 3rd instar larvae, after 6 days, read-out: mortality of insects. How it is done:
(§3) The test compound is made to a formulation according to the method described in the Formulation Example 5, and thereto is added water containing 0.03 v/v % of a spreader to prepare a diluted solution containing a prescribed concentration of the test compound.
Rice (Oryza sativa) seedling (on the developmental stage of the second true leaf) is planted in a plastic cup, and the diluted solutions are sprayed into the seedling in a ratio of 10 mL/seedling. Thereafter, 20 heads of 3rd instar larvae of brown planthopper (Nilaparvata lugens) are released onto the rice leaves. After 6 days, the morality is calculated by the following equation.
Morality (%)={1−the number of the surviving insects/20}×100

Assay [5] relates to cabbage moth (Plutella xylostella). The assay is described as follows: Test Example 3: foliar spray on cabbage seedling against cabbage moth. The conditions noted are these: 120 h, spray 20 mL/seedling on cabbage, second instar larvae, after 5 days, read-out: mortality of insects. How it is done:
as §3
The diluted solutions are sprayed into the cabbage (Brassicae oleracea) seedling (on the developmental stage of the second to third true leaf) that is planted in a container in a ratio of 20 mL/seedling. Thereafter, the stem and leaf thereof is cut out and then is installed into the container that is covered with the filter paper. Five (5) heads of cabbage moth (Plutella xylostella) at the second instar larval stages are released into the cup. After 5 days, the surviving insects are counted, and the mortality of insects is calculated by the following equation.
Morality (%)={1−the number of the surviving insects/5}×100

Assay [6] concerns cotton aphid (Aphis gossypii). Kind of assay: Test Example 1: foliar spray on cucumber seedling against cotton aphid. The conditions noted are these: 500 ppm; spray 10 mL/seedling on cucumber; all stages of life; after 5 days. As for the experimental part:
The test compounds is made to a formulation according to the method described in the Formulation Example 5, and thereto is added water containing 0.03 v/v % of a spreader to prepare a diluted solution containing a prescribed concentration of the test compound. Cucumber (Cucumis sativus) seedling (on the developmental stage of the second true leaf) is planted in a plastic cup, and approximately 30 heads of cotton aphid (Aphis gossypii) (all stages of life) are released onto the leaves of the cucumber. After 1 day, the diluted solutions were sprayed into the seedling in a ratio of 10 mL/seedling. After 5 days, the number of the surviving insects is examined and the controlling value is calculated by the following equation. Controlling value (%)={1−(Cb×Tai)/(Cai×Tb)}×100 wherein the symbols in the equation represent the following descriptions. Cb: Number of the test insects in untreated group; Cai: Number of the surviving insects at the time of the investigation in untreated group; Tb: Number of the test insects in treated group; Tai: Number of the surviving insects at the time of the investigation in treated group; Here the “untreated group” represents a group where the similar treatment procedure to that of the treated group except not using the test compound is done.

As for `CCS(=O)(=O)c1ccc(-n2cncn2)nc1-c1nc2cc(C(F)(F)F)ncc2n1C` [Present compound 1], the mortality at 500 ppm in assay [1], in assay [2], in assay [4] and in assay [5] was 100% in each case. Besides, the mortality at 3.5 ppm in assay [3] is 91%. Moreover, in assay [6], the controlling value was determined as 100%.

What is called mortality is the share of the test organisms that died.
